Assay results: patent publication US5583101A, “Use of nitrogen oxide species and adducts to inhibit skeletal muscle contraction” (Harvard College, priority 1994, dated 1996)

Tests used:
[1] = system: rat diaphragm fiber bundles; experiment: Force-frequency relationship (isometric force) of isolated diaphragm fiber bundles; assay type: cell-based; settings: for contractile increases (force-frequency relationship): same dose range as NIZ (100 uM-1 mM)
Experimental: FIGS. 3A and 3B. Skeletal muscle contractile properties are related to NOS activity Muscles (Soleus, n=6; DPH, diaphragm fiber bundles, n=7; EDL, extensor digitorum longus, n=5) were surgically isolated from deeply anesthetized rats, mounted in vitro at optimal length, and incubated at 37° C. in oxygenated buffered Krebs-Ringer solution containing d-tubocurarine 25 uM. Direct field stimulation (0.2 ms pulses, 250 ms train duration, supramaximal voltage) was used to evoke twitch (1 Hz) and tetanic (15, 30, 40, 50, 80, 120, 200 Hz) contractions. Isometric force was measured. Upper panel (A) depicts the average forces (+/-SE) developed at frequencies of 1-200 Hz. Tetanic stimulation at any submaximal frequency (15-150 Hz) evoked different amounts of force production among the muscles (Soleus>DPH>EDL). A vertical dotted line identifies the frequency (40 Hz) used in comparisons of NOS activity.
(§1) FIGS. 4A and 4B. Endogenous NO depresses contractile function. Fiber bundles were isolated from rat diaphragm and studied using methods described in FIG. 3. Panel A depicts the average forces (+SE) developed at stimulus frequencies of 1-120 Hz by muscles incubated in Krebs-Ringer solution containing either 7-nitroindazole (NIZ; n=3 per frequency) or aminoguanidine (AMG, n=3 per frequency). Forces are expressed as percentages of maximal tetanic force (PO).

other NOS isoforms = settings: Misko et al. 1993; cited from earlier work
[2] = system: rat diaphragm fiber bundles; experiment: Force developed at 40 Hz (submaximal tetanic contraction) by diaphragm fiber bundles; assay type: cell-based
Experimental: FIGS. 3A and 3B. […] Direct field stimulation (0.2 ms pulses, 250 ms train duration, supramaximal voltage) was used to evoke twitch (1 Hz) and tetanic (15, 30, 40, 50, 80, 120, 200 Hz) contractions. Isometric force was measured. Upper panel (A) depicts the average forces (+/-SE) developed at frequencies of 1-200 Hz. […] A vertical dotted line identifies the frequency (40 Hz) used in comparisons of NOS activity.
as §1, with “Endogenous NO depresses contractile function.” left out
Fiber bundles were isolated from rat diaphragm and studied using methods described in the description of FIG. 3. Data are mean forces (±SE) developed at 40 Hz by fiber bundles (n=5 or 6/group) treated with NLA (transcribed from FIG. 4B), NLA plus dipyramidole (DPM; phosphodiesterase inhibitor) 10 uM, 8-bromo-cGMP (BGMP; exogenous CGMP analogue), or DPM plus BGMP. Forces are expressed as percentages of the average force developed at 40 Hz by time- and stimulus-matched control muscle (shown±SE by horizontal dashed lines).

b-NOS = settings: Moore et al.; cited from earlier work

## N=C(N)NN [AMG, aminoguanidine]
[1]
  contractile increases (force-frequency relationship): Similar, albeit smaller, contractile increases
Other NOS isoforms
  NOS isoform selectivity: relative selectivity towards other NOS isoforms

## Nc1nc2c(nc(Br)n2[C@@H]2O[C@@H]3COP(=O)(O)O[C@H]3[C@H]2O)c(=O)[nH]1 [BGMP, 8-bromo-cGMP]
[2]; 40 Hz, FIG. 5
  effect on contractile increases caused by NOS inhibition: reversed
[2]; NLA-treated bundles, DPM 10 uM, FIG. 5, p<0.0001
  force developed at 40 Hz, compared with control: greater than control

## OCCN(CCO)c1nc(N2CCCCC2)c2nc(N(CCO)CCO)nc(N3CCCCC3)c2n1 [DPM, dipyridamole]
[2]; 40 Hz, FIG. 5
  effect on contractile increases caused by NOS inhibition: reversed

## N=C(N)NCCC[C@H](N)C(=O)O [L-arginine]
[1]
  contractile increases (force-frequency relationship): not

## O=[N+]([O-])c1cccc2cn[nH]c12 [NIZ, 7-nitroindazole]
[1]; 100 uM, p<0.05
  effect on contractile function (force-frequency relationship): Significant effects
[1]; 1 mM, FIG. 4A
  effect on contractile function (force-frequency curve): profoundly influenced contractile function, causing the diaphragm force-frequency curve to closely approximate that of the soleus
[1]; 1 mM, FIG. 4A, repeated measures ANOVA
  shift of the diaphragm force-frequency relationship: shifted the diaphragm force-frequency relationship up and to the left (p<0.0001 by repeated measures ANOVA) such that it was indistinguishable from the relationship measured in untreated soleus
b-NOS
  NOS isoform specificity: b-NOS specific inhibitor

## CC(=O)N[C@@H](CSN=O)C(=O)O [SNAC, S-nitroso-N-acetylcysteine]
[2]; 100 uM, FIG. 4B
  contractile function with exogenous NO donor: depressing contractile function
[2]; 40 Hz, SNAC 100 uM, NP 100 uM, NLA 10 mM, FIG. 4B
  force developed at 40 Hz, compared with control: not different from control

## CN(C)c1ccc2nc3ccc(=[N+](C)C)cc-3sc2c1 [methylene blue]
[2]; 10 uM, p<0.001, data not shown
  force production during submaximal tetanic contraction: increased force production

## Hemoglobin
[2]; 40 Hz, 50 uM, n=5, p=0.052
  force production during submaximal tetanic contraction: enhances force production
[2]; 40 Hz, 50-250 uM, n=10, p<0.001
  force production during submaximal tetanic contraction: enhances force production
